Measurements from patent publication US9695155B2, “Herbicidal substituted pyrimidinyloxy benzene compounds” (E. I. DU PONT DE NEMOURS AND COMPANY, priority 2013, dated 2017).

Tests used:
[1] = system: windgrass; test: Test D postemergence; format: in vivo, Apera spica-venti; conditions: Apera spica-venti, post-emergence
Method in brief: (§1)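 Values are 0–100 visual control ratings (0 none, 100 complete) given 7–21 days after application. Soil for preemergence was silt loam; postemergence plants stood 2–18 cm tall.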

[2] = system: wild radish; test: Test D preemergence; format: in vivo, Raphanus raphanistrum; conditions: Raphanus raphanistrum, pre-emergence
Method in brief: as §1

[3] = system: chamomile; test: Test D postemergence; format: in vivo, Matricaria inodora; conditions: Tripleurospermum inodorum, post-emergence
Method in brief: as §1

[4] = system: windgrass; test: Test D preemergence; format: in vivo, Apera spica-venti; conditions: Apera spica-venti, pre-emergence
Method in brief: as §1

[5] = system: wild mustard; test: Test D preemergence; format: in vivo, Sinapis arvensis; conditions: Brassica, pre-emergence
Method in brief: as §1

[6] = system: galium; test: Test D preemergence; format: in vivo, Galium aparine; conditions: Galium, pre-emergence
Method in brief: as §1

[7] = system: field poppy; test: Test D preemergence; format: in vivo, Papaver rhoeas; conditions: Papaver rhoeas, pre-emergence
Method in brief: as §1

[8] = system: wild radish; test: Test D postemergence; format: in vivo, Raphanus raphanistrum; conditions: Raphanus raphanistrum, post-emergence
Method in brief: as §1

[9] = system: Italian ryegrass; test: Test D preemergence; format: in vivo, Lolium multiflorum; conditions: Lolium multiflorum, pre-emergence
Method in brief: as §1

[10] = system: chickweed; test: Test D preemergence; format: in vivo, Stellaria media; conditions: Stellaria media, pre-emergence
Method in brief: as §1

[11] = system: blackgrass; test: Test D preemergence; format: in vivo, Alopecurus myosuroides; conditions: Alopecurus myosuroides, pre-emergence
Method in brief: as §1

Work on `Fc1cccc(Oc2ncc(Cl)cn2)c1-n1cc(C(F)F)nn1` [Compound 141, 5-chloro-2-[2-[4-(difluoromethyl)-1H-1,2,3-triazol-1-yl]-3-fluorophenoxy]pyrimidine] yielded a pest or weed control at 16 g/ha ([1]; 16 g ai/ha, scale 0-100, read-out: Plant response rating, Windgrass) of 5%, a pest or weed control at 31 g/ha ([1]; 31 g ai/ha, scale 0 to 100 (0 no effect, 100 complete control), read-out: Plant response rating, Windgrass) of 10% and a pest or weed control at 62 g/ha ([1]; 62 g ai/ha, scale 0 to 100 (0 no effect, 100 complete control), read-out: Plant response rating, Windgrass) of 50%. It also gave a pest or weed control at 125 g/ha ([1]; 125 g ai/ha, scale 0 to 100 (0 no effect, 100 complete control), read-out: Plant response rating, Windgrass) of 60%, a pest or weed control at 16 g/ha ([2]; 16 g ai/ha, scale 0 (no effect) to 100 (complete control), read-out: Plant response rating, Radish, Wild) of 40% and a pest or weed control at 31 g/ha ([2]; 31 g ai/ha, scale 0 (no effect) to 100 (complete control), read-out: Plant response rating, Radish, Wild) of 98%. It also gave a pest or weed control at 62 g/ha ([2]; 62 g ai/ha, scale 0-100, read-out: Plant response rating, Radish, Wild) of 100%, a pest or weed control at 125 g/ha ([2]; 125 g ai/ha, scale 0-100, read-out: Plant response rating, Radish, Wild) of 100% and a pest or weed control at 16 g/ha ([3]; 16 g ai/ha, scale 0-100, read-out: Plant response rating, Chamomile) of 10%. The pest or weed control at 31 g/ha ([3]; 31 g ai/ha, scale 0 to 100 (0 no effect, 100 complete control), read-out: Plant response rating, Chamomile) was 20%, the pest or weed control at 62 g/ha ([3]; 62 g ai/ha, scale 0 to 100 (0 no effect, 100 complete control), read-out: Plant response rating, Chamomile) was 15% and the pest or weed control at 125 g/ha ([3]; 125 g ai/ha, scale 0 to 100 (0 no effect, 100 complete control), read-out: Plant response rating, Chamomile) was 20%. It also gave a pest or weed control at 16 g/ha ([4]; 16 g ai/ha, scale 0 (no effect) to 100 (complete control), read-out: Plant response rating, Windgrass) of 35%, a pest or weed control at 31 g/ha ([4]; 31 g ai/ha, scale 0 (no effect) to 100 (complete control), read-out: Plant response rating, Windgrass) of 70% and a pest or weed control at 62 g/ha ([4]; 62 g ai/ha, scale 0-100, read-out: Plant response rating, Windgrass) of 85%. The pest or weed control at 125 g/ha ([4]; 125 g ai/ha, scale 0-100, read-out: Plant response rating, Windgrass) was 100%, the pest or weed control at 16 g/ha ([5]; 16 g ai/ha, scale 0 (no effect) to 100 (complete control), read-out: Plant response rating, Mustard, Wild) was 90% and the pest or weed control at 31 g/ha ([5]; 31 g ai/ha, scale 0-100, read-out: Plant response rating, Mustard, Wild) was 100%. For the same molecule, the pest or weed control at 62 g/ha ([5]; 62 g ai/ha, scale 0-100, read-out: Plant response rating, Mustard, Wild) was 100%, the pest or weed control at 125 g/ha ([5]; 125 g ai/ha, scale 0-100, read-out: Plant response rating, Mustard, Wild) was 100% and the pest or weed control at 16 g/ha ([6]; 16 g ai/ha, scale 0 (no effect) to 100 (complete control), read-out: Plant response rating, Galium) was 75%. The pest or weed control at 31 g/ha ([6]; 31 g ai/ha, scale 0-100, read-out: Plant response rating, Galium) was 100%, the pest or weed control at 62 g/ha ([6]; 62 g ai/ha, scale 0-100, read-out: Plant response rating, Galium) was 100% and the pest or weed control at 125 g/ha ([6]; 125 g ai/ha, scale 0-100, read-out: Plant response rating, Galium) was 100%. For the same molecule, the pest or weed control at 16 g/ha ([7]; 16 g ai/ha, scale 0 (no effect) to 100 (complete control), read-out: Plant response rating, Field Poppy) was 98%, the pest or weed control at 31 g/ha ([7]; 31 g ai/ha, scale 0-100, read-out: Plant response rating, Field Poppy) was 100% and the pest or weed control at 62 g/ha ([7]; 62 g ai/ha, scale 0-100, read-out: Plant response rating, Field Poppy) was 100%. It also gave a pest or weed control at 125 g/ha ([7]; 125 g ai/ha, scale 0-100, read-out: Plant response rating, Field Poppy) of 100%, a pest or weed control at 16 g/ha ([8]; 16 g ai/ha, scale 0-100, read-out: Plant response rating, Radish, Wild) of 90% and a pest or weed control at 31 g/ha ([8]; 31 g ai/ha, scale 0 to 100 (0 no effect, 100 complete control), read-out: Plant response rating, Radish, Wild) of 95%. For the same molecule, the pest or weed control at 62 g/ha ([8]; 62 g ai/ha, scale 0 to 100 (0 no effect, 100 complete control), read-out: Plant response rating, Radish, Wild) was 100%, the pest or weed control at 125 g/ha ([8]; 125 g ai/ha, scale 0 to 100 (0 no effect, 100 complete control), read-out: Plant response rating, Radish, Wild) was 100% and the pest or weed control at 16 g/ha ([9]; 16 g ai/ha, scale 0 (no effect) to 100 (complete control), read-out: Plant response rating, Ryegrass, Italian) was 35%. The pest or weed control at 31 g/ha ([9]; 31 g ai/ha, scale 0 (no effect) to 100 (complete control), read-out: Plant response rating, Ryegrass, Italian) was 55%, the pest or weed control at 62 g/ha ([9]; 62 g ai/ha, scale 0-100, read-out: Plant response rating, Ryegrass, Italian) was 70% and the pest or weed control at 125 g/ha ([9]; 125 g ai/ha, scale 0-100, read-out: Plant response rating, Ryegrass, Italian) was 75%. It also gave a pest or weed control at 16 g/ha ([10]; 16 g ai/ha, scale 0 (no effect) to 100 (complete control), read-out: Plant response rating, Chickweed) of 100%, a pest or weed control at 31 g/ha ([10]; 31 g ai/ha, scale 0-100, read-out: Plant response rating, Chickweed) of 100% and a pest or weed control at 62 g/ha ([10]; 62 g ai/ha, scale 0-100, read-out: Plant response rating, Chickweed) of 100%. For the same molecule, the pest or weed control at 125 g/ha ([10]; 125 g ai/ha, scale 0-100, read-out: Plant response rating, Chickweed) was 100%, the pest or weed control at 16 g/ha ([11]; 16 g ai/ha, scale 0 (no effect) to 100 (complete control), read-out: Plant response rating, Blackgrass) was 40% and the pest or weed control at 31 g/ha ([11]; 31 g ai/ha, scale 0-100, read-out: Plant response rating, Blackgrass) was 65%. It also gave a pest or weed control at 62 g/ha ([11]; 62 g ai/ha, scale 0-100, read-out: Plant response rating, Blackgrass) of 90% and a pest or weed control at 125 g/ha ([11]; 125 g ai/ha, scale 0-100, read-out: Plant response rating, Blackgrass) of 95%.
